Holding throughout (type): biochemical
For test [1], the target named is T1, KRAS G12D (amino acids 1-169) (Homo sapiens, UniProt P01116, G12D).
T1 construct: made in house; host or cells: E. coli
The experiment in a line: SOS-catalyzed nucleotide exchange assay (Procedure B, BODIPY FL GDP displacement), KRAS G12D. To be noted: read-out: KRAS G12D GNE IC50. Here is the method:
(§1) Procedure for SOS-Catalyzed Nucleotide Exchange Assay for KRAS-G12C/D/V/WT (Procedure B)
(§2) Recombinant KRAS G12C (amino acids 1-169, SEQ ID NO:9), KRAS G12D (amino acids 1-169, SEQ ID NO: 10), KRAS G12V (amino acids 1-169, SEQ ID NO: 11), KRAS WT (amino acids 1-169, SEQ ID NO:12) and SOS1 (amino acids 564-1049, SEQ ID NO: 13) proteins were expressed in E. coli and purified by affinity chromatography. To prepare each BODIPY™ FL GDP-bound KRAS protein, 50 μM KRAS proteins were incubated with 0.5 mM BODIPY™ FL GDP (Invitrogen, G22360) in a loading buffer (20 mM Tris-HCl pH 7.5, 50 mM NaCl, 1 mM DTT and 2.5 mM EDTA) for 1 hour on ice. After the incubation, MgCl2 was added to a final concentration of 10 mM, followed by an incubation at room temperature for 30 minutes. The mixtures were allowed to pass through a NAP-5 column to remove free nucleotides and purified BODIPY™ FL GDP-bound KRAS G12C, G12D, G12V and WT proteins were used for compound evaluation.
(§3) The inhibitory activity of compounds on recombinant KRAS is measured by the displacement of the bound BODIPY™ GDP. Specifically, 2.5 nM of each BODIPY™ FL GDP-bound KRAS complex was incubated with various concentrations of compound in a reaction buffer (20 mM Tris-HCl pH 7.5, 100 mM NaCl, 1 mM MgCl2, 2 mM DTT, 0.1% Tween 20) at 25° C. for 1 hour. After the incubation, recombinant SOS1 and GMPPNP (Jena Bioscience GmbH, NU-401) were added and incubated at room temperature for 30 minutes to proceed SOS1-dependent GDP-GTP exchange reaction on KRAS. Displacement of BODIPY™ FL GDP by Guanosine-5′-[(β,γ)-imido]triphosphate, Tetralithium salt (GMPPNP) was measured by calculating the ratio of fluorescence intensities of BODIPY™ FL before and after the exchange reaction. Percent Inhibition was calculated by setting the fluorescence ratio from the reaction without test compound (DMSO control) and the fluorescence ratio from the reaction without SOS1 and GMPPNP as 0% and 100% inhibition, respectively. Dose response curves were analyzed using a 4-parameter logistic model to calculate IC50 values.

The target of test [2] is T2, KRAS WT (amino acids 1-169) (Homo sapiens, UniProt P01116).
T2 construct: made in house; host or cells: E. coli
The experiment in a line: SOS-catalyzed nucleotide exchange assay (Procedure B, BODIPY FL GDP displacement), KRAS WT. Conditions: read-out: KRAS WT GNE IC50. Here is the method: as §1, §2, §3

Test [3] concerns the target T3, KRAS G12C (amino acids 1-169) (Homo sapiens, UniProt P01116, G12C).
T3 construct: made in house; host or cells: E. coli
The experiment in a line: SOS-catalyzed nucleotide exchange assay (Procedure B, BODIPY FL GDP displacement), KRAS G12C. Conditions: read-out: KRAS G12C GNE IC50. Here is the method:
as §1, §2, §3

Test [4] has as its target T4, KRAS G12V (amino acids 1-169) (Homo sapiens, UniProt P01116, G12V).
T4 construct: made in house; host or cells: E. coli
The experiment in a line: SOS-catalyzed nucleotide exchange assay (Procedure B, BODIPY FL GDP displacement), KRAS G12V. Conditions: read-out: KRAS G12V GNE IC50. The procedure: as §1, §2, §3

T2 sequence (P01116 with tags, fused parts or gaps isoform P01116-2): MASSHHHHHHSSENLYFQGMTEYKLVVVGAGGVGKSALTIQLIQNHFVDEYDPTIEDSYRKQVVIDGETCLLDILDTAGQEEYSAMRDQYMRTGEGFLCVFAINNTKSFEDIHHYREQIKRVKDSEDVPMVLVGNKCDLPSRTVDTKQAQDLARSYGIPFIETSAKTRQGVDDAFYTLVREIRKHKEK
T1 sequence (P01116 with tags, fused parts or gaps isoform P01116-2 G12D): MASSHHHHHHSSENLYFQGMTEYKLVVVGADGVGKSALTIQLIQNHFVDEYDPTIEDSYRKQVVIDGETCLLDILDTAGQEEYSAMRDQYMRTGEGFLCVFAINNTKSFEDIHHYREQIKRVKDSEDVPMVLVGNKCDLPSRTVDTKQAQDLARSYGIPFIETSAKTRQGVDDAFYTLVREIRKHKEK
T3 sequence (P01116 with tags, fused parts or gaps isoform P01116-2 G12C): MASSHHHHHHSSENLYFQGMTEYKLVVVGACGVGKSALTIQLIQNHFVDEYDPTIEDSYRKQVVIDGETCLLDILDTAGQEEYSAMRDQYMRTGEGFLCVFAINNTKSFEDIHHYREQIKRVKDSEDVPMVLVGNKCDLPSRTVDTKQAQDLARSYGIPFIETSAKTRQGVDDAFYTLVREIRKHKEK
T4 sequence (P01116 with tags, fused parts or gaps isoform P01116-2 G12V): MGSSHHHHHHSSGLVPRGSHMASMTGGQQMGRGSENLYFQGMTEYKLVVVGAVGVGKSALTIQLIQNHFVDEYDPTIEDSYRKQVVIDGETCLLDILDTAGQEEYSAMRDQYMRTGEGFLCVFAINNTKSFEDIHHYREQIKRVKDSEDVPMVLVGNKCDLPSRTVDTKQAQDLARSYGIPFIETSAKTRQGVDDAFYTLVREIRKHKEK

Regarding `CCCC1CCc2cc3[nH]ncc3c(-c3nccc4c3sc3nc(OC[C@@]56CCCN5C[C@H](F)C6)nc(N5CCOC[C@@](C)(O)C5)c34)c21` (stereo partly drawn) [Ex-95], the half-inhibitory concentration (IC50) (commonly the concentration that inhibits the measured activity by half) in test [1] came out at 49.8 nM; in test [2], 99.4 nM; in test [3], 91.5 nM; in test [4], 65 nM.

Turning to `Cc1cc2[nH]ncc2c(-c2nccn3c2c(F)c2nc(OC[C@@]45CCCN4C[C@H](F)C5)nc(N4CCOC[C@@](C)(O)C4)c23)c1C1CC1` [Ex-306, (S)-4-(9-(5-cyclopropy1-6-methyl-1H-indazol-4-yl)-10-fluoro-2-(((2R,7aS)-2-fluorotetrahydro-1H-pyrrolizin-7a(5H)-yl)methoxy)pyrazino[1′2′:1,5]pyrrolo[3,2-d]pyrimidin-4-yl)-6-methyl-1,4-oxazepan-6-o1], the IC50 is 4.7 nM in test [1], 16.6 nM in test [2], 10.8 nM in test [3] and 18.9 nM in test [4].

For the compound `CC(=O)c1c(C(F)(F)F)cc2[nH]ncc2c1-c1nccc2c1sc1nc(OC[C@@]34CCCN3C[C@H](F)C4)nc(N3CCOC[C@@](C)(O)C3)c12` [Ex-59], the IC50 was found to be 71.9 nM in test [1], 112 nM in test [2], 183 nM in test [3] and 125 nM in test [4].

`CC1(F)c2c(cc3[nH]ncc3c2-c2nccc3c2sc2nc(OC[C@@]45CCCN4C[C@H](F)C5)nc(N4CCOC[C@@](C)(O)C4)c23)CC1(F)F` (single isomer, unassigned) [Ex-99]: the IC50 in test [1] was determined as 27.3 nM; in test [2], 56.5 nM; in test [3] it was 52.4 nM; in test [4], 65.6 nM.

In the case of `C[C@@]1(O)COCCN(c2nc(OC[C@@]34CCCN3C[C@H](F)C4)nc3sc4c(-c5c6c(cc7[nH]ncc57)CCC6=O)nccc4c23)C1` [Ex-89, 4-(2-(((2R,7aS)-2-fluorotetrahydro-1H-pyrrolizin-7a(5H)-yl)methoxy)-4-((S)-6-hydroxy-6-methyl-1,4-oxazepan-4-yl)pyrido[4′,3′:4,5]thieno [2,3-d]pyrimidin-8-yl)-6,7-dihydrocyclopenta[f]inda-zol-5(1H)-one], the IC50 in test [1] is 80 nM; in test [2] it was 171 nM; in test [3], 138 nM; in test [4], 245 nM.

Turning to `Cc1cc2[nH]ncc2c(-c2nccc3c2sc2nc(OC[C@@]45CCCN4C[C@H](F)C5)nc(N)c23)c1C(F)(F)F` [Ex-189, 2-(((2R,7aS)-2-fluoro-tetrahydro-1H-pyrrolizin-7a(5H)-yl)methoxy)-8-(6-methyl-5-(trifluoromethyl)-1H-indazol-4-yl)pyrido [4′,3′:4,5]thieno[2,3-d] pyrimidin-4-amine], the IC50 was 3010 nM in test [1], 2250 nM in test [2], 1360 nM in test [3] and 2200 nM in test [4].

As for `CO[C@]1(C)COCCN(c2nc(OC[C@@]34CCCN3C[C@H](F)C4)nc3sc4c(-c5c(C(F)(F)F)c(C)cc6[nH]ncc56)nccc4c23)C1` [Ex-203, (6S)-4-(2-(((2R,7aS)-2-fluorotetrahydro-1H-pyrrolizin-7a(5H)-yl)methoxy)-8-(6-methyl-5-(trifluoromethyl)-1H-indazol-4-yl)pyrido[4′,3′:4,5]thieno[2,3-d]pyrimidin-4-yl)-6-methoxy-6-methyl-1,4-oxazepane], the IC50 amounted to 493 nM in test [1], 767 nM in test [2], 590 nM in test [3] and 936 nM in test [4].

Take `COCC1CCc2cc3[nH]ncc3c(-c3nccc4c3sc3nc(OC[C@@]56CCCN5C[C@H](F)C6)nc(N5CCOC[C@@](C)(O)C5)c34)c21` (single isomer, unassigned) [Ex-97]: the IC50 was determined as 3.16 nM in test [1], 8.37 nM in test [2], 9.73 nM in test [3] and 7.19 nM in test [4].

On to `C[C@@]1(O)COCCN(c2nc(OC[C@@]34CCCN3C[C@H](F)C4)nc3sc4c(-c5c6c(cc7[nH]ncc57)CCC6C#N)nccc4c23)C1` (stereo partly drawn) [Ex-96, 4-(2-(((2R,7aS)-2-fluorotetrahydro-1H-pyrrolizin-7a(5H)-yl)methoxy)-4-((S)-6-hydroxy-6-methyl-1,4-oxazepan-4-yl)pyrido[4′,3′:4,5]thieno [2,3-d]pyrimidin-8-yl)-1,5,6,7-tetrahydrocyclopenta[f]in-dazole-5-carbonitrile], for which the half-maximal inhibitory concentration (IC50) amounted to 43.8 nM in test [1], 125 nM in test [2], 193 nM in test [3] and 105 nM in test [4].

With `CCC1CC(F)(F)c2cc3[nH]ncc3c(-c3nccc4c3sc3nc(OC[C@@]56CCCN5C[C@H](F)C6)nc(N5CCOC[C@@](C)(O)C5)c34)c21` (stereo partly drawn) [Ex-102, (6S)-4-(8-(5-ethyl-7,7-difluoro-1,5,6,7-tetrahydrocyclopenta[f]in-dazol-4-yl)-2-(((2R,7aS)-2-fluorotetrahydro-1H-pyrrolizin-7a(5H)-yl)methoxy)pyrido[4′,3′:4,5]thi-eno[2,3-d]pyrimidin-4-yl)-6-methyl-1,4-oxazepan-6-ol], the IC50 in test [1] stood at 3.56 nM; in test [2], 7.84 nM; in test [3], 10.3 nM; in test [4], 10.4 nM.

Turning to `CC1CC(F)(F)c2cc3[nH]ncc3c(-c3nccc4c3sc3nc(OC[C@@]56CCCN5C[C@H](F)C6)nc(N5CCOC[C@@](C)(O)C5)c34)c21` (stereo partly drawn) [Ex-101, (6S)-4-(8-(7,7-difluoro-5-methy1-1,5,6,7-tetrahydrocyclopenta[f]in-dazol-4-yl)-2-(((2R,7aS)-2-fluorotetrahydro-1H-pyrrolizin-7a(5H)-yl)methoxy)pyrido[4′,3′:4,5]thi-eno[2,3-d]pyrimidin-4-yl)-6-methyl-1,4-oxazepan-6-ol], the half-maximal inhibitory concentration (IC50) in test [1] came to 1.99 nM; in test [2] it was 4 nM; in test [3], 6.44 nM; in test [4] it was 5.16 nM.

As to `CC(=O)N1CC(Nc2nc(OC[C@@]34CCCN3C[C@H](F)C4)nc3sc4c(-c5c(C(F)(F)F)c(C)cc6[nH]ncc56)nccc4c23)C1` [Ex-190, 1-(3-((2-(((2R,7aS)-2-fluorotetrahydro-1H-pyr-rolizin-7a(5H)-yl)meth-oxy)-8-(6-methyl-5-(tri-fluoromethyl)-1H-indazol-4-yl)pyrido[4′,3′:4,5]thieno[2,3-d]pyrimidin-4-yl)amino)azetidin-1-yl)-ethan-1-one], the IC50 was determined as 438 nM in test [1], 432 nM in test [2], 340 nM in test [3] and 490 nM in test [4].

Turning to `CC1c2c(cc3[nH]ncc3c2-c2nccc3c2sc2nc(OC[C@@]45CCCN4C[C@H](F)C5)nc(N4CCOC[C@@](C)(O)C4)c23)C(C)(C)C1(F)F` (stereo partly drawn) [Ex-100, (6S)-4-(8-(6,6-difluoro-5,7,7-trimethyl-1,5,6,7-tetrahydrocyclopenta[f]in-dazol-4-yl)-2-(((2R,7aS)-2-fluorotetrahydro-1H-pyrrolizin-7a(5H)-yl)methoxy)pyrido[4′,3′: 4,5]thieno[2,3-d]pyrimidin-4-yl)-6-methyl-1,4-oxazepan-6-ol], the IC50 in test [1] is 216 nM; in test [2] it was 354 nM; in test [3] it was 663 nM; in test [4], 507 nM.

As to `C[C@@]1(O)COCCN(c2nc(OC[C@@]34CCCN3C[C@H](F)C4)nc3sc4c(-c5c(C6=CCOC6)c(Cl)cc6[nH]ncc56)nccc4c23)C1` [Ex-74, (6S)-4-(8-(6-chloro-5-(2,5-dihydrofuran-3-yl)-1H-indazol-4-yl)-2-(((2R,7aS)-2-fluorotetrahydro-1H-pyrrolizin-7a(5H)-yl)methoxy)pyrido[4′,3′:4,5]thi-eno[2,3-d]pyrimidin-4-yl)-6-methyl-1,4-oxazepan-6-ol], the IC50 came out at 438 nM in test [1], 933 nM in test [2], 819 nM in test [3] and 1260 nM in test [4].

As to `C=CC1CCc2cc3[nH]ncc3c(-c3nccc4c3sc3nc(OC[C@@]56CCCN5C[C@H](F)C6)nc(N5CCOC[C@@](C)(O)C5)c34)c21` (single isomer, unassigned) [Ex-93], the IC50 was 1.64 nM in test [1], 3.13 nM in test [2], 7.03 nM in test [3] and 3.7 nM in test [4].

For the origin of these results see patent US20260176289A1, “SMALL MOLECULE INHIBITORS OF KRAS PROTEINS” (Merck Sharp & Dohme LLC, priority 2022, published 2026).
